For this assay, the target named is T1, BRM (Homo sapiens, UniProt P51531).
T1 construct: In-Cell Western Screen of BRM Degradation in SW1573 Cells; endogenous in cells; host or cells: SW1573
As to the kind of experiment: In-cell Western screen of BRM degradation in SW1573 cells (Dmax and DC50). The format is cell-based. The gist of the method: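 BRM levels were read by LI-COR in-cell Western after two-channel (800/680 nm) immunostaining of fixed, Triton-permeabilised SW1573 cells.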

[1] abbreviates: BRM degradation, SW1573 cells, read-out: DC50.
Setting [2] is: SW1573, % degraded, when tested at the top concentration of between 0.3 and 10 μM, read-out: BRM Dmax (%).
[3] abbreviates: target protein degradation, read-out: BRM DC50.
The mark [4] stands for this setting: BRM degradation, read-out: BRM DC50.
[5] abbreviates: BRM degradation, SW1573 cells, tested at the top concentration of between 0.3 and 10 μM, read-out: Dmax (%) (% degraded).

Where two headings read alike, the source gives them in different places. Where only a bound is given, the exact number is not on record here.

T1 sequence (P51531 whole entry): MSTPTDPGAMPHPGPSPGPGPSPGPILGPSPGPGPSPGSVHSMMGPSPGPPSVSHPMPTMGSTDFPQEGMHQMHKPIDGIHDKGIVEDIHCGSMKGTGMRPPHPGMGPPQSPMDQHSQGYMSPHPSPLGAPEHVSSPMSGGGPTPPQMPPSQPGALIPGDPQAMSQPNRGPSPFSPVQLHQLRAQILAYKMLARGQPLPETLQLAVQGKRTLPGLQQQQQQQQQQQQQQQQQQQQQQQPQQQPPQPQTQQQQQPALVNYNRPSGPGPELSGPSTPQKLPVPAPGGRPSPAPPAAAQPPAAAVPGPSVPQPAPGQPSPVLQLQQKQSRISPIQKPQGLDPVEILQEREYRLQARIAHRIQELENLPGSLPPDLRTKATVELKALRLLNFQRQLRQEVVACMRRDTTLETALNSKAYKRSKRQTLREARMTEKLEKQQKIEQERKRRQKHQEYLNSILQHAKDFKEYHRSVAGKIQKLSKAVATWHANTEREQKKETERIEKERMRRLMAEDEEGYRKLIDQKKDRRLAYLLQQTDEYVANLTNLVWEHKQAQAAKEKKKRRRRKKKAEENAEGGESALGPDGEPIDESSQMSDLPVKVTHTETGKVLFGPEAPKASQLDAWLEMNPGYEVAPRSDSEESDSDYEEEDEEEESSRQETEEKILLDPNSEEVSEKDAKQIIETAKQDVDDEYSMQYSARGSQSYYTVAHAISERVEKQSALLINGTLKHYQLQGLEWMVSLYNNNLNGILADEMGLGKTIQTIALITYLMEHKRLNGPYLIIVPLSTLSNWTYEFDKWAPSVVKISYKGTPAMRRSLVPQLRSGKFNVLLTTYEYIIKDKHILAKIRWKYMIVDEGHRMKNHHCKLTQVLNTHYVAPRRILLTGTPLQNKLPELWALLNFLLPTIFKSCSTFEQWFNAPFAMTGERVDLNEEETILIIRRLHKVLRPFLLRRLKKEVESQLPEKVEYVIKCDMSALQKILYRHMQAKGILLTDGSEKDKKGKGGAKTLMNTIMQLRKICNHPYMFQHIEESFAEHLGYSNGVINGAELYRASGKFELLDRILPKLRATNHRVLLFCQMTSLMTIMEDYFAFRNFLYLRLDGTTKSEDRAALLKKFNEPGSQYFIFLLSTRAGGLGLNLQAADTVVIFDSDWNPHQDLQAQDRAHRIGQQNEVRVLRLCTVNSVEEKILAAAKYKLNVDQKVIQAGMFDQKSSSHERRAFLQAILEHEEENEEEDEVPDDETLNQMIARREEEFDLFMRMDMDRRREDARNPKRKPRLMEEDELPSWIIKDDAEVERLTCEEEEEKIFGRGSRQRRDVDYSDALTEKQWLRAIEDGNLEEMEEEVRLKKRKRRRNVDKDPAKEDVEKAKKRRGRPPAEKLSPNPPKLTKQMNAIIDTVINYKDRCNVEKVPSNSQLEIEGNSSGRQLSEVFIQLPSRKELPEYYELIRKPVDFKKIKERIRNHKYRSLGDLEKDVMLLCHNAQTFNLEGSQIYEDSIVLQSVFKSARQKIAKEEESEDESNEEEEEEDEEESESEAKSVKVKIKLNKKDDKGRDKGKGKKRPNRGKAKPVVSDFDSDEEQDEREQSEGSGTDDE

`Cc1ncsc1-c1ccc([C@H](C)NC(=O)[C@@H]2C[C@@H](O)CN2C(=O)[C@H](c2cc(OCCCc3ccc(C(C)n4cc(-c5cc(-c6ccccc6O)nnc5N)cn4)cc3)no2)C(C)C)cc1` (stereo partly drawn) [compound 59, (2S,4R)-1-((2S)-2-(3-(3-(4-(1-(4-(3-amino-6-(2-hydroxyphenyl)pyridazin-4-yl)-1H-pyrazol-1-yl)ethyl)phenyl)propoxy)isoxazol-5-yl)-3-methylbutanoyl)-4-hydroxy-N-((S)-1-(4-(4-methylthiazol-5-yl)phenyl)ethyl)pyrrolidine-2-carboxamide]: under setting [1], the DC50 is greater than 30 nM. Besides, the Dmax (BRM degradation, SW1573 cells, when tested at the top concentration of between 0.3 and 10 μM, read-out: Dmax (%) (% degraded)) was greater than 75%. As for `Cc1ncsc1-c1ccc([C@H](C)NC(=O)[C@@H]2C[C@@H](O)CN2C(=O)[C@@H](c2cc(OCCN3CCC(N4CC(Oc5cc(N6C7CCC6CN(c6cc(-c8ccccc8O)nnc6N)C7)ccn5)C4)CC3)no2)C(C)C)cc1` [compound 374, (2S,4R)-1-((2R)-2-(3-(2-(4-(3-((4-(3-(3-amino-6-(2-hydroxyphenyl)pyridazin-4-yl)-3,8-diazabicyclo[3.2.1]octan-8-yl)pyridin-2-yl)oxy)azetidin-1-yl)piperidin-1-yl)ethoxy)isoxazol-5-yl)-3-methylbutanoyl)-4-hydroxy-N-((S)-1-(4-(4-methylthiazol-5-yl)phenyl)ethyl)pyrrolidine-2-carboxamide], under setting [2], the Dmax was greater than 75%. The DC50 under setting [3] was greater than 30 nM. Take `Cc1ncsc1-c1ccc([C@H](C)NC(=O)[C@@H]2C[C@@H](O)CN2C(=O)[C@@H](c2cc(N3CC(COCCOc4cc(N5C6CCC5CN(c5cc(-c7ccccc7O)nnc5N)C6)ccn4)C3)no2)C(C)C)cc1` [compound 550, (2S,4R)-1-((2R)-2-(3-(3-((2-((4-(3-(3-amino-6-(2-hydroxyphenyl)pyridazin-4-yl)-3,8-diazabicyclo[3.2.1]octan-8-yl)pyridin-2-yl)oxy)ethoxy)methyl)azetidin-1-yl)isoxazol-5-yl)-3-methylbutanoyl)-4-hydroxy-N-((S)-1-(4-(4-methylthiazol-5-yl)phenyl)ethyl)pyrrolidine-2-carboxamide]: the greatest degradation seen (Dmax) (BRM degradation, SW1573 cells, Table 2D, read-out: **Dmax (%) (% degraded)) is greater than 75%. Further, the DC50 (BRM degradation, SW1573 cells, Table 2D, read-out: *DC50) was less than 2.5 nM. `Cc1ncsc1-c1cnc([C@H](C)NC(=O)[C@@H]2C[C@@H](O)CN2C(=O)[C@@H](c2cc(OCCN3CCC(O[C@H]4C[C@H](Oc5cc(N6C7CCC6CN(c6cc(-c8ccccc8O)nnc6N)C7)ccn5)C4)CC3)no2)C(C)C)cn1` [compound 491, (2S,4R)-1-((2R)-2-(3-(2-(4-((1r,3R)-3-((4-(3-(3-amino-6-(2-hydroxyphenyl)pyridazin-4-yl)-3,8-diazabicyclo[3.2.1]octan-8-yl)pyridin-2-yl)oxy)cyclobutoxy)piperidin-1-yl)ethoxy)isoxazol-5-yl)-3-methylbutanoyl)-4-hydroxy-N-((S)-1-(5-(4-methylthiazol-5-yl)pyrazin-2-yl)ethyl)pyrrolidine-2-carboxamide]: the DC50 under setting [4] was less than 2.5 nM. The Dmax under setting [2] was greater than 75%. Consider `Cc1ncsc1-c1ccc([C@@H](CCO)NC(=O)[C@@H]2C[C@@H](O)CN2C(=O)[C@@H](c2cc(N3CCC(CN4CCC(O[C@H]5C[C@H](Oc6cc(N7C8CCC7CN(c7cc(-c9ccccc9O)nnc7N)C8)ccn6)C5)CC4)CC3)no2)C(C)C)cc1` [compound 662, (2S,4R)-1-((2R)-2-(3-(4-((4-((1r,3r)-3-((4-(3-(3-amino-6-(2-hydroxyphenyl)pyridazin-4-yl)-3,8-diazabicyclo[3.2.1]octan-8-yl)pyridin-2-yl)oxy)cyclobutoxy)piperidin-1-yl)methyl)piperidin-1-yl)isoxazol-5-yl)-3-methylbutanoyl)-4-hydroxy-N-((R)-3-hydroxy-1-(4-(4-methylthiazol-5-yl)phenyl)propyl)pyrrolidine-2-carboxamide], for which, under setting [1], the half-maximal degradation concentration (DC50) lay within 2.5 to 10 nM. Also, the Dmax (BRM degradation, SW1573 cells, read-out: Dmax (% degraded)) was greater than 75%. Turning to `Cc1ncsc1-c1ccc([C@H](C)NC(=O)[C@@H]2C[C@@H](O)CN2C(=O)[C@@H](c2cc(OCCN3CCC(O[C@H]4C[C@H](Oc5cc(N6C7CCC6CN(c6cc(-c8ccccc8O)nnc6N)C7)ccn5)C4)CC3)no2)C(C)C)cc1F` [compound 253, (2S,4R)-1-((2R)-2-(3-(2-(4-((1r,3R)-3-((4-(3-(3-amino-6-(2-hydroxyphenyl)pyridazin-4-yl)-3,8-diazabicyclo[3.2.1]octan-8-yl)pyridin-2-yl)oxy)cyclobutoxy)piperidin-1-yl)ethoxy)isoxazol-5-yl)-3-methylbutanoyl)-N-((S)-1-(3-fluoro-4-(4-methylthiazol-5-yl)phenyl)ethyl)-4-hydroxypyrrolidine-2-carboxamide], the DC50 under setting [1] was less than 2.5 nM. Under setting [5], the Dmax is greater than 75%. Turning to `Cc1cnnn1-c1ccc([C@H](C)NC(=O)[C@@H]2C[C@@H](O)CN2C(=O)[C@@H](c2cc(OCCN3CCN(CCOc4cc(N5C6CCC5CN(c5cc(-c7ccccc7O)nnc5N)C6)ccn4)CC3)no2)C(C)C)cc1` [compound 275, (2S,4R)-1-((2R)-2-(3-(2-(4-(2-((4-(3-(3-amino-6-(2-hydroxyphenyl)pyridazin-4-yl)-3,8-diazabicyclo[3.2.1]octan-8-yl)pyridin-2-yl)oxy)ethyl)piperazin-1-yl)ethoxy)isoxazol-5-yl)-3-methylbutanoyl)-4-hydroxy-N-((S)-1-(4-(5-methyl-1H-1,2,3-triazol-1-yl)phenyl)ethyl)pyrrolidine-2-carboxamide], the DC50 under setting [1] was 10 to 30 nM. Moreover, the Dmax under setting [5] is greater than 75%. For the compound `Cc1ncsc1-c1ccc([C@H](C)NC(=O)[C@@H]2C[C@@H](O)CN2C(=O)[C@H](c2cc(OCC#Cc3ncc(O[C@H]4C[C@H](Oc5cc(N6C7CCC6CN(c6cc(-c8ccccc8O)nnc6N)C7)ccn5)C4)cn3)no2)C(C)C)cn1` [compound 399, (2S,4R)-1-((2S)-2-(3-((3-(5-((1r,3S)-3-((4-(3-(3-amino-6-(2-hydroxyphenyl)pyridazin-4-yl)-3,8-diazabicyclo[3.2.1]octan-8-yl)pyridin-2-yl)oxy)cyclobutoxy)pyrimidin-2-yl)prop-2-yn-1-yl)oxy)isoxazol-5-yl)-3-methylbutanoyl)-4-hydroxy-N-((S)-1-(6-(4-methylthiazol-5-yl)pyridin-3-yl)ethyl)pyrrolidine-2-carboxamide], under setting [3], the DC50 is greater than 30 nM. For the compound `Cc1ncsc1-c1ccc([C@H](C)NC(=O)[C@@H]2C[C@@H](O)CN2C(=O)[C@H](c2cc(OCCOCCOc3cc(N4C5CCC4CN(c4cc(-c6ccccc6O)nnc4N)C5)ccn3)no2)C(C)C)cc1` [compound 356, (2S,4R)-1-((2S)-2-(3-(2-(2-((4-(3-(3-amino-6-(2-hydroxyphenyl)pyridazin-4-yl)-3,8-diazabicyclo[3.2.1]octan-8-yl)pyridin-2-yl)oxy)ethoxy)ethoxy)isoxazol-5-yl)-3-methylbutanoyl)-4-hydroxy-N-((S)-1-(4-(4-methylthiazol-5-yl)phenyl)ethyl)pyrrolidine-2-carboxamide], the DC50 under setting [3] is greater than 30 nM. Regarding `Cc1ncsc1-c1ccc([C@H](C)NC(=O)[C@@H]2C[C@@H](O)CN2C(=O)[C@H](c2cc(N3CCN(C[C@H]4C[C@H](Oc5cc(N6C7CCC6CN(c6cc(-c8ccccc8O)nnc6N)C7)ccn5)C4)CC3)no2)C(C)C)cc1` [compound 498, (2S,4R)-1-((2S)-2-(3-(4-(((1r,3S)-3-((4-(3-(3-amino-6-(2-hydroxyphenyl)pyridazin-4-yl)-3,8-diazabicyclo[3.2.1]octan-8-yl)pyridin-2-yl)oxy)cyclobutyl)methyl)piperazin-1-yl)isoxazol-5-yl)-3-methylbutanoyl)-4-hydroxy-N-((S)-1-(4-(4-methylthiazol-5-yl)phenyl)ethyl)pyrrolidine-2-carboxamide], the 50% degradation concentration (DC50) under setting [4] was greater than 30 nM. As for `CC(C)[C@H](C(=O)N1C[C@H](O)C[C@H]1C(=O)N[C@@H](C)c1ccc(-n2ccccc2=O)cc1)c1cc(OCCN2CCC(O[C@H]3C[C@H](Oc4cc(N5C6CCC5CN(c5cc(-c7ccccc7O)nnc5N)C6)ccn4)C3)CC2)no1` [compound 372, (2S,4R)-1-((2S)-2-(3-(2-(4-((1r,3S)-3-((4-(3-(3-amino-6-(2-hydroxyphenyl)pyridazin-4-yl)-3,8-diazabicyclo[3.2.1]octan-8-yl)pyridin-2-yl)oxy)cyclobutoxy)piperidin-1-yl)ethoxy)isoxazol-5-yl)-3-methylbutanoyl)-4-hydroxy-N-((S)-1-(4-(2-oxopyridin-1(2H)-yl)phenyl)ethyl)pyrrolidine-2-carboxamide], the Dmax under setting [2] was greater than 75%. In addition, the DC50 under setting [3] is greater than 30 nM.

As to `CC(C)[C@H](C(=O)N1C[C@H](O)C[C@H]1C(=O)N[C@@H](C)c1ccc(-c2scnc2CO)cc1)c1cc(OCCN2CCC(O[C@H]3C[C@H](Oc4cc(N5C6CCC5CN(c5cc(-c7ccccc7O)nnc5N)C6)ccn4)C3)CC2)no1` [compound 219, (2S,4R)-1-((2S)-2-(3-(2-(4-((1r,3S)-3-((4-(3-(3-amino-6-(2-hydroxyphenyl)pyridazin-4-yl)-3,8-diazabicyclo[3.2.1]octan-8-yl)pyridin-2-yl)oxy)cyclobutoxy)piperidin-1-yl)ethoxy)isoxazol-5-yl)-3-methylbutanoyl)-4-hydroxy-N-((S)-1-(4-(4-(hydroxymethyl)thiazol-5-yl)phenyl)ethyl)pyrrolidine-2-carboxamide], under setting [1], the DC50 is greater than 30 nM.

In general, DC50 refers to the midpoint of the concentration-degradation curve. Usually Dmax stands for the greatest extent of degradation seen.
